Results on four compounds are retold here after patent US20080118979A1, “Methods of regulating expression of genes or of gene products using substituted tetracycline compounds” (Paratek Pharmaceuticals, Inc., priority 2006, published 2008).

Data set [1] deals with tetR, luxCDABE operon under the regulation of the tetA promotor/operator. Put plainly: JE305K+pTetLux1 tet detection system (Klux). It is filed as cell-based. From the text:
In another embodiment, a tetracycline compound of the invention can be used to regulate transcription of a gene or gene product under the control of a native Tet operator and in the presence of a native TetR in a cell. In one embodiment, the invention pertains to such a cell. For example, JE305K is a strain that has disrupted acrB and waaP genes and comprises a plasmid which contains tetR, and the luxCDABE operon (from P. luminescens) under the regulation of the tetA promotor/operator.
The substituted tetracycline compounds were examined in a dose response analysis using the JE305K+pTetLux1 tet detection system. JE305K is a strain that has disrupted acrB and waaP genes. pTetLux1 is a plasmid which contains tetR, and has the luxCDABE operon (from P. luminescens) under the regulation of the tetA promotor/operator. The plasmid was obtained from the University of Turku, Finland.

In a further data set the test system is rtTA2-MT2. Put plainly: rtTA-mediated gene activation, luciferase positive cell line MT2. Type of data set: cell-based. From the text: FIGS. 2A-2D show a comparison of doxycycline and 9-t-butyl doxcycline in 34R and MT2 rtTA mutants. FIGS. 2A and 2B show the effect of doxycyline on 34R and MT2 mutants, respectively. FIGS. 2C and 2D show the effect of 9-t-butyl doxycycline on 34R and MT2 mutants, respectively.

The subject of data set [2] is transactivator fusion protein. The settings on record: as demonstrated in U.S. Pat. No. 5,789,156; cited from earlier work.
The conditions of data set [3]: Mansuy and Bujard Curr. Op. Neurobiol. 10:593-96; cited from earlier work.

With `CCCC#Cc1ccc(O)c2c1C[C@H]1C[C@H]3[C@H](N(C)C)C(O)=C(C(N)=O)C(=O)[C@@]3(O)C(O)=C1C2=O`, the “activity in the JE305K+pTetLux1 assay” value in data set [1] was “active”.

For 5-phenylcarbamate doxcycline, the “activation of rtTA2s-M2 compared with doxycycline” value in the data set on rtTA2-MT2 was “two fold better activator”.

Turning to `Cc1c2c(c(O)c3c(O)cccc13)C(=O)[C@]1(O)C(=O)C(C(N)=O)=C(O)[C@@H](N(C)C)[C@@H]1C2` [anhydrotetracycline], the “strength as inducing agent” value in data set [2] was “strong inducing agents”.

Turning to `C[C@H]1c2cccc(O)c2C(=O)C2=C(O)[C@]3(O)C(=O)C(C(N)=O)=C(O)[C@@H](N(C)C)[C@@H]3[C@@H](O)[C@@H]21` [doxycycline], the “penetration of the blood-brain barrier” value in data set [3] is listed as “limited penetration of the blood-brain barrier”.
